This note sets out measurements from PMC8765781, “A platform of assays for the discovery of anti-Zika small-molecules with activity in a 3D-bioprinted outer-blood-retina model” (PLoS ONE, 2022).

Series [1] has as its system wild-type ZIKV (Ugandan MR766 strain) in Vero cells. The series can be described thus: ZIKV cytopathic effect (CPE) inhibition qHTS assay, CellTiter-Glo readout. It is filed as cell-based, Zika virus. The conditions noted are these: for AC50 / IC50: Zika virus; for IC50: read-out: ZIKV-infection (CPE, ZIKV Antiviral Assays), IC50. In general terms: Cytopathic effects are the visible damage that an infection or toxin causes in cultured cells.

Series [2] concerns caspase-3 activity induced by ZIKV in Vero cells. The series can be described thus: cells. In kind it is cell-based. The conditions noted are these: Zika virus, read-out: Caspase 3 (ZIKV Antiviral Assays), IC50.
Series [3] relates to ZIKV-RLuc (Cambodian strain FSS13025). The series can be described thus: microbe, parasite or virus in culture. In kind it is cell-based, Zika virus. The conditions noted are these: Zika virus, Vero, 48 h, read-out: Rluc-ZIKV (ZIKV Antiviral Assays), IC50.
Series [4] has as its system ZIKV-mCherry (Cambodian strain FSS13025). The series can be described thus: microbe, parasite or virus in culture. The conditions noted are these: for AC50: Zika virus, Vero. In kind it is cell-based, Zika virus.
In series [5] the test system is mCherry-ZIKV in human neuronal progenitor cells. The series can be described thus: microbe, parasite or virus in culture. The conditions noted are these: for AC50 / IC50: Zika virus, Neuronal progenitor cell; for IC50: read-out: NPC (ZIKV Antiviral Assays), IC50. In kind it is cell-based, Zika virus.
For series [6], the system named is DENV (Dengue virus type 2, strain New Guinea C).
Series [7] in a line: in vitro. The conditions noted are these: African green monkey.
A short description of series [8]: in vitro. The conditions noted are these: human.
The nature of series [9]: in vitro. The conditions noted are these: human. The source holds these as a separate data set.
[10] abbreviates: Vero, read-out: Log AC50 (M) (converted).
[11] abbreviates: read-out: Log AC50 (M) (converted).

Structures are written as SMILES. Where two headings read alike, the source gives them in different places.

In general, AC50 refers to the concentration at which the activity in the assay is half-maximal. Usually IC50 stands for the concentration that gives 50% inhibition. As for `CNC(=O)c1cc(Oc2ccc(NC(=O)Nc3cc(C(C)(C)C)nn3-c3ccc4ncccc4c3)c(F)c2)ccn1` [NCGC00263172-09], the “CC-v2 (curve class classification of the dose response curve)” value in series [1] was -1.2. Further, the Efficacy is reported as -30.756 in [1] and -38.32 in [5]. Further, the AC50 in series [1] (Vero) is 2.91e-05 M; in series [1] (setting [10]), 2.91e-05 M; in series [4], 9.46e-07 M; in series [4] (setting [11]), 9.46e-07 M; in series [5], 4.47e-05 M; in series [5] (setting [11]), 4.47e-05 M. The IC50 was determined as 29.1 µM in series [1] (Vero, 48 h); 0.01 µM in series [2] (Vero, 48 h); 8.27 µM in series [3]; 44.7 µM in [5]. The “CC-v2 (curve class of the dose response curve)” value in [4] was -1.2. For the same molecule, in series [4], the “Efficacy (difference between neutral response and maximum compound response)” value is on record as -48.4. The “Max Resp (difference between neutral response and response at highest compound concentration)” value in series [4] was -100.305. In addition, in [5], the “Max Resp” value is -37.38. The “DENV active Yes/No” value in series [6] is listed as “No”. For the same molecule, the “ZIKV active Yes/No” value with ZIKV is “No”. For the same molecule, in the series with WNV (Kern515/WN02), the “WHV active Yes/No” value is listed as “No”. Moreover, the “YFV active Yes/No” value with YFV (YFV 17D) is on record as “No”. The CC50 at 48 h in “in vitro [7]” (Vero cells) was over 50 µM. In “in vitro [8]”, this molecule showed a CC50 of over 30 µM. Also, the CC50 at 24 h in “in vitro [9]” worked out at 12.1 µM.
On to `CCOC(=O)C1=C(C)NC2=C(C(=O)CC(C)(C)C2)C1c1ccc(-c2ccccc2)cc1` (stereo not shown) [NCGC00347947-06], for which the “CC-v2 (curve class classification of the dose response curve)” value in series [1] was -2.2. The Efficacy in series [1] is recorded as -55.111; in [5], -93.817. Besides, the AC50 is 2.06e-05 M in [1] (Vero); 2.06e-05 M in [1] (setting [10]); 8.43e-07 M in series [4]; 8.43e-07 M in series [4] (setting [11]); 3.55e-05 M in series [5]; 3.55e-05 M in [5] (setting [11]). Besides, the IC50 was 20.6 µM in series [1] (Vero, 48 h); 33.1 µM in series [2] (Vero, 48 h); 14.7 µM in series [3]; 35.5 µM in [5]. In series [4], the “CC-v2 (curve class of the dose response curve)” value was found to be 5. In addition, in series [4], the “Efficacy (difference between neutral response and maximum compound response)” value is -39.533. Moreover, the “Max Resp (difference between neutral response and response at highest compound concentration)” value in series [4] is recorded as -99.952. In series [5], the “Antiviral activity in human NPC” value is “moderate antiviral activity”. The “CC-v2 (curve class)” value in series [5] is -2.1. Moreover, the “Max Resp” value in series [5] is recorded as -85.476. In addition, the “DENV active Yes/No” value in series [6] is recorded as “No”. Further, the “ZIKV active Yes/No” value with ZIKV was “No”. The “WHV active Yes/No” value with WNV (Kern515/WN02) is recorded as “No”. Also, the “YFV active Yes/No” value in the series on YFV (YFV 17D) was “No”. In addition, the CC50 at 48 h in “in vitro [7]” is over 50 µM. Further, in “in vitro [8]”, the CC50 amounted to 22.4 µM. Also, the CC50 at 24 h in “in vitro [9]” was over 30 µM.
Turning to `COC(=O)[C@]12CCCC(C)(C)C1CCc1cc(C(C)C)c(O)c(O)c12` (stereo partly shown) [NCGC00380281-01], the AC50 in series [1] (Vero, from Hill fit of the response curve, 50% of maximum activity response, 194 cherry-picked compounds, protocol name not given, read-out: AC50) is 7.18e-06 M. Also, the half-maximal activity concentration (AC50) in series [1] (Vero, potency in log units (Molar) from Hill fit of the response curve, 194 cherry-picked compounds, protocol name not given, read-out: Log AC50 (converted)) was 7.18e-06 M. In series [1] (Vero cells, wild-type ZIKV MOI 1, 48 hr, unit inferred), the IC50 worked out at 7.18 µM. The Efficacy in series [1] (difference between neutral response and maximum compound response) is -21.701. Also, the 50% inhibitory concentration (IC50) in series [2] (ZIKV-infected Vero cells, 48 hr, unit inferred) turned out to be 12.9 µM. The IC50 in series [3] is 25.6 µM. Besides, in series [4], the “CC-v2 (curve class of the dose response curve)” value is reported as -1.4; the “Efficacy (difference between neutral response and maximum compound response)” value is listed as -82.117; the “Max Resp (difference between neutral response and response at highest compound concentration)” value is -100.29. Besides, in [5], the “CC-v2 (curve class)” value is 4, the Efficacy is on record as -22.278, the “Max Resp” value was -14.815 and the IC50 was found to be 31.6 µM. Further, the “DENV active Yes/No” value in [6] is on record as “No”. Besides, in the series on ZIKV, the “ZIKV active Yes/No” value was “No”. Also, in the series on WNV (Kern515/WN02), the “WHV active Yes/No” value is “No”. Moreover, the “YFV active Yes/No” value in the series with YFV (YFV 17D) is given as “No”. The CC50 at 48 h in “in vitro [7]” is over 50 µM. Besides, in “in vitro [8]”, the CC50 is over 30 µM. The CC50 at 24 h in the series “in vitro [9]” was over 30 µM.
